#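 Assay format: 96-well plates, 48-hour exposure. GI50 is the concentration that inhibits growth by half. The concentration for full growth arrest is given as TGI.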
# What was measured:
# Experiment in all cases: NCI anticancer screen, dose series, 48 h
# SK-MEL-2 melanoma = system: SK-MEL-2 melanoma
# DU-145 prostate = system: DU-145 prostate
# OVCAR-4 ovarian = system: OVCAR-4 ovarian
# NCI/ADR-RES ovarian = system: NCI/ADR-RES ovarian
# UACC-62 melanoma = system: UACC-62 melanoma
# UO-31 renal = system: UO-31 renal
# NCI-H460 lung = system: NCI-H460 lung
# 786-0 renal = system: 786-0 renal
# SK-MEL-5 melanoma = system: SK-MEL-5 melanoma
# MCF7 breast = system: MCF7 breast
# MDA-MB-231 breast = system: MDA-MB-231 breast
# EKVX NSCLC = system: EKVX NSCLC
# SR leukemia = system: SR leukemia
# PC-3 prostate = system: PC-3 prostate
# LOX IMVI melanoma = system: LOX IMVI melanoma
# A498 renal = system: A498 renal
# MOLT-4 leukemia = system: MOLT-4 leukemia
# NCI-H226 lung = system: NCI-H226 lung
# HT29 colon = system: HT29 colon
# TK-10 renal = system: TK-10 renal
# KM12 colon = system: KM12 colon
# IGROV1 ovarian = system: IGROV1 ovarian
# OVCAR-3 ovarian = system: OVCAR-3 ovarian
# SK-MEL-28 melanoma = system: SK-MEL-28 melanoma
# HOP-92 NSCLC = system: HOP-92 NSCLC
# UACC-257 melanoma = system: UACC-257 melanoma
# SNB-19 CNS = system: SNB-19 CNS
# OVCAR-8 ovarian = system: OVCAR-8 ovarian
# RPMI-8226 leukemia = system: RPMI-8226 leukemia
# U251 CNS = system: U251 CNS
# SF-295 CNS = system: SF-295 CNS
# A549 NSCLC = system: A549 NSCLC
# SF-539 CNS = system: SF-539 CNS
# HCC-2998 colon = system: HCC-2998 colon
# CAKI-1 renal = system: CAKI-1 renal
# BT-549 breast = system: BT-549 breast
# CCRF-CEM leukemia = system: CCRF-CEM leukemia
# HCT-116 colon = system: HCT-116 colon
# MALME-3M melanoma = system: MALME-3M melanoma
# NCI-H23 lung = system: NCI-H23 lung
# RXF 393 renal = system: RXF 393 renal
# K-562 leukemia = system: K-562 leukemia
# SW-620 colon = system: SW-620 colon
# HL-60(TB) leukemia = system: HL-60(TB) leukemia
# ACHN renal = system: ACHN renal
# HOP-62 NSCLC = system: HOP-62 NSCLC
# HCT-15 colon = system: HCT-15 colon
# SK-OV-3 ovarian = system: SK-OV-3 ovarian
# HS 578T breast = system: HS 578T breast
# NCI-H522 lung = system: NCI-H522 lung
# T-47D breast = system: T-47D breast
compound,measurement,setting,value
CN(C)c1ccc(/C=N/Nc2nc(N/N=C/c3ccc(N(C)C)cc3)nc(N3CCCCC3)n2)cc1,GI50,SK-MEL-2 melanoma,1.99 µM
same,TGI,SK-MEL-2 melanoma,3.72 µM
same,GI50,DU-145 prostate,3.92 µM
same,TGI,DU-145 prostate,> 100 µM
same,GI50,OVCAR-4 ovarian,5.03 µM
same,TGI,OVCAR-4 ovarian,> 100 µM
same,GI50,NCI/ADR-RES ovarian,3.19 µM
same,TGI,NCI/ADR-RES ovarian,17 µM
same,GI50,UACC-62 melanoma,1.84 µM
same,TGI,UACC-62 melanoma,3.78 µM
same,GI50,UO-31 renal,1.72 µM
same,TGI,UO-31 renal,3.7 µM
same,GI50,NCI-H460 lung,3.21 µM
same,TGI,NCI-H460 lung,> 100 µM
same,GI50,786-0 renal,1.7 µM
same,TGI,786-0 renal,3.62 µM
same,GI50,SK-MEL-5 melanoma,1.73 µM
same,TGI,SK-MEL-5 melanoma,3.15 µM
same,GI50,MCF7 breast,2.86 µM
same,TGI,MCF7 breast,> 100 µM
same,GI50,MDA-MB-231 breast,1.8 µM
same,TGI,MDA-MB-231 breast,3.4 µM
same,GI50,EKVX NSCLC,3.13 µM
same,TGI,EKVX NSCLC,> 100 µM
same,GI50,SR leukemia,0.369 µM
same,TGI,SR leukemia,> 100 µM
same,GI50,PC-3 prostate,2.57 µM
same,TGI,PC-3 prostate,7.91 µM
same,GI50,LOX IMVI melanoma,1.61 µM
same,TGI,LOX IMVI melanoma,3.19 µM
same,GI50,A498 renal,1.58 µM
same,TGI,A498 renal,3.51 µM
same,GI50,MOLT-4 leukemia,2.87 µM
same,TGI,MOLT-4 leukemia,> 100 µM
same,GI50,NCI-H226 lung,2.19 µM
same,TGI,NCI-H226 lung,5.64 µM
same,GI50,HT29 colon,1.76 µM
same,TGI,HT29 colon,3.36 µM
same,GI50,TK-10 renal,2.54 µM
same,TGI,TK-10 renal,7.28 µM
same,GI50,KM12 colon,2.84 µM
same,TGI,KM12 colon,8.49 µM
same,GI50,IGROV1 ovarian,2.96 µM
same,TGI,IGROV1 ovarian,> 100 µM
same,GI50,OVCAR-3 ovarian,2.28 µM
same,TGI,OVCAR-3 ovarian,5.03 µM
same,GI50,SK-MEL-28 melanoma,2 µM
same,TGI,SK-MEL-28 melanoma,4.35 µM
same,GI50,HOP-92 NSCLC,1.47 µM
same,TGI,HOP-92 NSCLC,3.25 µM
same,GI50,UACC-257 melanoma,1.83 µM
same,TGI,UACC-257 melanoma,3.67 µM
same,GI50,SNB-19 CNS,3.33 µM
same,TGI,SNB-19 CNS,> 100 µM
same,GI50,OVCAR-8 ovarian,3.21 µM
same,TGI,OVCAR-8 ovarian,> 100 µM
same,GI50,RPMI-8226 leukemia,1.92 µM
same,TGI,RPMI-8226 leukemia,5.1 µM
same,GI50,U251 CNS,2.88 µM
same,TGI,U251 CNS,14.3 µM
same,GI50,SF-295 CNS,1.96 µM
same,TGI,SF-295 CNS,3.79 µM
same,GI50,A549 NSCLC,2.99 µM
same,TGI,A549 NSCLC,> 100 µM
same,GI50,SF-539 CNS,1.99 µM
same,TGI,SF-539 CNS,3.97 µM
same,GI50,HCC-2998 colon,2.4 µM
same,TGI,HCC-2998 colon,6.67 µM
same,GI50,CAKI-1 renal,2.08 µM
same,TGI,CAKI-1 renal,5.02 µM
same,GI50,BT-549 breast,15.5 µM
same,TGI,BT-549 breast,58.6 µM
same,GI50,CCRF-CEM leukemia,1.21 µM
same,TGI,CCRF-CEM leukemia,> 100 µM
same,GI50,HCT-116 colon,1.64 µM
same,TGI,HCT-116 colon,3.75 µM
same,GI50,MALME-3M melanoma,1.86 µM
same,TGI,MALME-3M melanoma,3.4 µM
same,GI50,NCI-H23 lung,3.49 µM
same,TGI,NCI-H23 lung,> 100 µM
same,GI50,RXF 393 renal,2.12 µM
same,TGI,RXF 393 renal,6.12 µM
same,GI50,K-562 leukemia,0.895 µM
same,TGI,K-562 leukemia,> 100 µM
same,GI50,SW-620 colon,3.17 µM
same,TGI,SW-620 colon,> 100 µM
same,GI50,HL-60(TB) leukemia,2.2 µM
same,TGI,HL-60(TB) leukemia,6.71 µM
same,GI50,ACHN renal,2.68 µM
same,TGI,ACHN renal,7.68 µM
same,GI50,HOP-62 NSCLC,2.19 µM
same,TGI,HOP-62 NSCLC,5.05 µM
same,GI50,HCT-15 colon,1.87 µM
same,TGI,HCT-15 colon,4.62 µM
same,GI50,SK-OV-3 ovarian,2.17 µM
same,TGI,SK-OV-3 ovarian,4.88 µM
same,GI50,HS 578T breast,2.09 µM
same,TGI,HS 578T breast,5.57 µM
same,GI50,NCI-H522 lung,2.06 µM
same,TGI,NCI-H522 lung,4.56 µM
same,GI50,T-47D breast,2.18 µM
same,TGI,T-47D breast,5.54 µM

# Source: PubChem BioAssay (NCI)
